Measured values: patent US10568950B1, “Peptides, combination of peptides and scaffolds for use in immunotherapeutic treatment of various cancers” (Immatics Biotechnologies GmbH, priority 2015, dated 2020)

The substances below were run on CD8+ T cells of healthy HLA-A*24+ donors (assay: In vitro immunogenicity: priming of CD8+ T cells with aAPCs loaded with HLA-A*24/peptide complexes and anti-CD28, multimer staining). Settings: in vitro immunogenicity of HLA class I peptides; share of positive wells; peptides of Table 3 (HLA-A*24 binding).
Type: cell-based, human
Description: CD8+ T cells were primed using artificial APCs coated with anti-CD28 mAb and HLA-A*24 in complex with SEQ ID NO: 99 peptide (FIG. 5A, left panel), SEQ ID NO: 119 peptide (FIG. 5B, left panel), SEQ ID NO: 142 peptide (FIG. 5C, left panel) and SEQ ID NO: 174 peptide (FIG. 5D, left panel), respectively. After three cycles of stimulation, the detection of peptide-reactive cells was performed by 2D multimer staining with A*24/SEQ ID NO: 99 (A), A*24/SEQ ID NO: 119 (B), A*24/SEQ ID NO: 142 (C) or A*24/SEQ ID NO: 174 (D). Right panels (FIGS. 5A, 5B, 5C and 5D) show control staining of cells stimulated with irrelevant A*24/peptide complexes. Viable singlet cells were gated for CD8+ lymphocytes. Boolean gates helped excluding false-positive events detected with multimers specific for different peptides. Frequencies of specific multimer+ cells among CD8+ lymphocytes are indicated.
In order to obtain information regarding the immunogenicity of the TUMAPs of the present invention, the inventors performed investigations using an in vitro T-cell priming assay based on repeated stimulations of CD8+ T cells with artificial antigen presenting cells (aAPCs) loaded with peptide/MHC complexes and anti-CD28 antibody.
PBMCs and isolated CD8+ lymphocytes were incubated in T-cell medium (TCM) until use consisting of RPMI-Glutamax (Invitrogen, Karlsruhe, Germany) supplemented with 10% heat inactivated human AB serum (PAN-Biotech, Aidenbach, Germany), 100 U/ml Penicillin/100 μg/ml Streptomycin (Cambrex, Cologne, Germany), 1 mM sodium pyruvate (CC Pro, Oberdorla, Germany), 20 μg/ml Gentamycin (Cambrex). 2.5 ng/ml IL-7 (PromoCell, Heidelberg, Germany) and 10 U/ml IL-2 (Novartis Pharma, Nurnberg, Germany) were also added to the TCM at this step.
Generation of pMHC/anti-CD28 coated beads, T-cell stimulations and readout was performed in a highly defined in vitro system using four different pMHC molecules per stimulation condition and 8 different pMHC molecules per readout condition.
The purified co-stimulatory mouse IgG2a anti human CD28 Ab 9.3 (Jung et al., 1987) was chemically biotinylated using Sulfo-N-hydroxysuccinimidobiotin as recommended by the manufacturer (Perbio, Bonn, Germany). Beads used were 5.6 μm diameter streptavidin coated polystyrene particles (Bangs Laboratories, Illinois, USA).
800.000 beads/200 μl were coated in 96-well plates in the presence of 4×12.5 ng different biotin-pMHC, washed and 600 ng biotin anti-CD28 were added subsequently in a volume of 200 μl. Stimulations were initiated in 96-well plates by co-incubating […] CD8+ T cells with 2×10^5 washed coated beads in 200 μl TCM supplemented with 5 ng/ml IL-12 (PromoCell) for 3 days at 37° C. Half of the medium was then exchanged by fresh TCM supplemented with 80 U/ml IL-2 and incubating was continued for 4 days at 37° C. This stimulation cycle was performed for a total of three times. For the pMHC multimer readout using 8 different pMHC molecules per condition, a two-dimensional combinatorial coding approach was used as previously described (Andersen et al., 2012) with minor modifications encompassing coupling to 5 different fluorochromes. Finally, multimeric analyses were performed by staining the cells with Live/dead near IR dye (Invitrogen, Karlsruhe, Germany), CD8-FITC antibody clone SKI (BD, Heidelberg, Germany) and fluorescent pMHC multimers. For analysis, a BD LSRII SORP cytometer equipped with appropriate lasers and filters was used. Peptide specific cells were calculated as percentage of total CD8+ cells. Evaluation of multimeric analysis was done using the FlowJo software (Tree Star, Oreg., USA). In vitro priming of specific multimer+ CD8+ lymphocytes was detected by comparing to negative control stimulations.

Substance | wells
414 (MYPYIYHVL; listed as Homo sapiens) [compound 414] | ++ (20%-49% = ++)
400 (KYLEKYYNL; listed as Homo sapiens) [compound 400] | ++ (20%-49% = ++)
393 (KYIEAIQWI; listed as Homo sapiens) [compound 393] | ++ (20%-49% = ++)
407 (VYGIRLEHF; listed as Homo sapiens) [compound 407] | +++ (50%-69% = +++)
399 (SYIDVLPEF; listed as Homo sapiens) [compound 399] | ++ (20%-49% = ++)

Same assay, conditions: in vitro immunogenicity, HLA-A*24 peptides of Table 12B

Substance | Wells positive [%]
349 (QYSIISNVF; listed as Homo sapiens) [compound 349] | ++ (20%-49% = ++)
107 (KYFPYLVVI; listed as Homo sapiens) [compound 107] | ++ (20%-49% = ++)
122 (EYQARIPEF; listed as Homo sapiens) [compound 122] | ++ (20%-49% = ++)
142 (VYVDDIYVI; listed as Homo sapiens) [compound 142] | ++++ (>= 70 % = ++++)
106 (IYNETVRDLL; listed as Homo sapiens) [compound 106] | + (<20% = +)
103 (NYIPVKNGKQF; listed as Homo sapiens) [compound 103] | + (<20% = +)
366 (QYLELAHSL; listed as Homo sapiens) [compound 366] | ++ (20%-49% = ++)
160 (RYGDGGSSF; listed as Homo sapiens) [compound 160] | + (<20% = +)
363 (SYAELGTTI; listed as Homo sapiens) [compound 363] | + (<20% = +)
179 (TYIPVGLGRLL; listed as Homo sapiens) [compound 179] | +++ (50%-69% = +++)
171 (NYEDHFPLL; listed as Homo sapiens) [compound 171] | ++ (20%-49% = ++)
367 (LYQDHMQYI; listed as Homo sapiens) [compound 367] | ++ (20%-49% = ++)
358 (YYSEVPVKL; listed as Homo sapiens) [compound 358] | ++++ (>= 70 % = ++++)
354 (VYNEQIRDLL; listed as Homo sapiens) [compound 354] | + (<20% = +)
371 (AYSHLRYVF; listed as Homo sapiens) [compound 371] | ++ (20%-49% = ++)
174 (VYEKNGYIYF; listed as Homo sapiens) [compound 174] | ++++ (>= 70 % = ++++)
277 (FYTFPFQQL; listed as Homo sapiens) [compound 277] | +++ (50%-69% = +++)
175 (LYSPVPFTL; listed as Homo sapiens) [compound 175] | + (<20% = +)
360 (VFSPDGHLF; listed as Homo sapiens) [compound 360] | ++ (20%-49% = ++)
345 (EYNSDLHQFF; listed as Homo sapiens) [compound 345] | ++ (20%-49% = ++)
105 (IYNETITDLL; listed as Homo sapiens) [compound 105] | + (<20% = +)
167 (RYGFYYVEF; listed as Homo sapiens) [compound 167] | ++++ (>= 70 % = ++++)

Substance | Wells positive [%]
161 (KYPDIVQQF; listed as Homo sapiens) [compound 161] | + (<20% = +)
157 (DYIPASGFALF; listed as Homo sapiens) [compound 157] | + (<20% = +)
350 (KYGNFIDKL; listed as Homo sapiens) [compound 350] | +++ (50%-69% = +++)
98 (VFPRLHNVLF; listed as Homo sapiens) [compound 98] | + (<20% = +)
112 (IYNFVESKL; listed as Homo sapiens) [compound 112] | +++ (50%-69% = +++)
111 (VYVQILQKL; listed as Homo sapiens) [compound 111] | + (<20% = +)
110 (SYPKIIEEF; listed as Homo sapiens) [compound 110] | ++ (20%-49% = ++)
181 (VYPPYLNYL; listed as Homo sapiens) [compound 181] | ++++ (>= 70 % = ++++)
158 (IYEETRGVLKVF; listed as Homo sapiens) [compound 158] | + (<20% = +)
351 (IFHEVPLKF; listed as Homo sapiens) [compound 351] | ++ (20%-49% = ++)
177 (VYFKAGLDVF; listed as Homo sapiens) [compound 177] | + (<20% = +)
168 (RYLEAALRL; listed as Homo sapiens) [compound 168] | +++ (50%-69% = +++)
162 (KYTSYILAF; listed as Homo sapiens) [compound 162] | + (<20% = +)
164 (HYVPATKVF; listed as Homo sapiens) [compound 164] | + (<20% = +)
139 (IFGIFPNQF; listed as Homo sapiens) [compound 139] | ++ (20%-49% = ++)
353 (TYGKIDLGF; listed as Homo sapiens) [compound 353] | + (<20% = +)
119 (VYRVYVTTF; listed as Homo sapiens) [compound 119] | +++ (50%-69% = +++)
102 (VYPFENFEF; listed as Homo sapiens) [compound 102] | +++ (50%-69% = +++)
115 (RYLNKSFVL; listed as Homo sapiens) [compound 115] | + (<20% = +)
344 (EYNSDLHQF; listed as Homo sapiens) [compound 344] | + (<20% = +)
180 (KYLQVVGMF; listed as Homo sapiens) [compound 180] | + (<20% = +)
190 (LYSELTETL; listed as Homo sapiens) [compound 190] | ++++ (>= 70 % = ++++)

These substances were tested on HLA-A*24 (assay: MHC binding assay: UV-ligand exchange, beta2m ELISA (peptide exchange yield)). Settings: binding to HLA-A*24, β2m ELISA.
Design: species or system human
From the text: Candidate peptides for T cell based therapies according to the present invention were further tested for their MHC binding capacity (affinity). The individual peptide-MHC complexes were produced by UV-ligand exchange, where a UV-sensitive peptide is cleaved upon UV-irradiation, and exchanged with the peptide of interest as analyzed. Only peptide candidates that can effectively bind and stabilize the peptide-receptive MHC molecules prevent dissociation of the MHC complexes. To determine the yield of the exchange reaction, an ELISA was performed based on the detection of the light chain (β2m) of stabilized MHC complexes. The assay was performed as generally described in Rodenko et al. (Rodenko et al., 2006).
96 well MAXISorp plates (NUNC) were coated over night with 2 ug/ml streptavidin in PBS at room temperature, washed 4× and blocked for 1 h at 37° C. in 2% BSA containing blocking buffer. […] Peptide-MHC monomers of the UV-exchange reaction were diluted 100 fold in blocking buffer. Samples were incubated for 1 h at 37° C., washed four times, incubated with 2 ug/ml HRP conjugated anti-βm for 1 h at 37° C., washed again and detected with TMB solution that is stopped with […]. Absorption was measured at 450 nm. Candidate peptides that show a high exchange yield (preferably higher than 50%, most preferred higher than 75%) are generally preferred for a generation and production of antibodies or fragments thereof, and/or T cell receptors or fragments thereof, as they show sufficient avidity to the MHC molecules and prevent dissociation of the MHC complexes.

Peptide exchange (MHC class I binding score, peptide exchange yield) | Substance
++++ (>= 75% = ++++) | 274 (KQLDIANYELF; listed as Homo sapiens) [compound 274]
++++ (>= 75% = ++++) | 275 (KYGTLDVTF; listed as Homo sapiens) [compound 275]
